# Read-outs that look alike come from different tables or passages of the source.
# Experiments:
# pERK in NCI-H358 cells = assay: Cell-based pERK HTRF assay; settings: 30 min incubation, read-out: pERK in NCI-H358 cell inhibition IC50
# Procedure: pERK assays (Perkin Elmer) were used to determine the effectiveness of compounds of the present disclosure in disrupting KRAS G12C protein/effector signaling in cells.
# On Day 1, cells (NCI-H358) were seeded into 96-well plates at 4×10^4 cells/well in complete growth media (RPMI, 10% FBS).
# On Day 2, cells were treated with compounds at 0.25% DMSO. The source plate was created with compounds diluted in media at 5-fold the final assay concentration. The compounds were run in a 9-point concentration curve starting at 75 μM, with a 3-fold dilution between concentrations. 20 μL was transferred onto the cell plates (final volume in wells was 100 μL). Plates were harvested after 30 min incubation by aspirating media and adding kit-supplied 1× supplemented lysis buffer to all wells (75 μl per well). Plates were then placed on a plate shaker and incubated at 850 rpm for an additional 30 min.
# Antibody mixture solution was prepared by diluting aliquoted d2 and Eu Cryptate antibodies 1:20 in kit supplied detection buffer, then mixed the diluted antibodies solutions (1:1 v:v). 4 μL of this solution was then added to a 384-well detection plate (Perkin Elmer; 6008230).
# Samples were homogenized by pipetting up and down and then transferred (16 μL of cell lysates) from the 96-well cell culture plate to two wells of the HTRF 384-well detection plate containing the antibody solution. Plates were centrifuged (524 g for Imin) and allowed to incubate between 4 and 24 h at room temperature. Maximum signal is reached after 4 h incubation time and remains stable over a period of 24 hours. Therefore, readings can be made between 4 and 24 h of incubation. Plates were centrifuged again (524 g for Imin) and analyzed on the En Vision plate reader using the following settings: Excitation 320 nm, Bandwidth 75 nm; Emission 615 nm, Bandwidth 85 nm; Gain 100%; Flashes 100; Lag 60 μs.
# [1] = target: T1, GppNHp-loaded KRAS4b (amino acids 1-169) G12C/C118S protein (Homo sapiens, UniProt P01116, C118S/G12C); assay: Covalent cysteine 12 modification by MALDI-TOF MS, GppNHp-loaded KRAS G12C; format: binding; settings: 15 minutes reaction time point
# T1 construct: KRAS4b (amino acids 1-169) G12C/C118S protein; made in house
# Procedure: (§1) Reaction: 1 μM of GppNHp-, GTP-, or GDP-loaded KRAS4b (amino acids 1-169) G12C/C118S protein (produced in-house by Protein Expression Laboratory, FNLCR/Leidos Biomed) in 20 mM 4-(2-hydroxyethyl)-1-piperazineethanesulfonic acid (HEPES) buffer containing 150 mM NaCl, 1 mM MgCl2, pH 7.3 was prepared freshly before assay. Ten-μL aliquots of protein were dispensed onto low volume 384-well plate, then 375 nL DMSO, and 25 nL of tested compounds from 5 mM DMSO stocks were added to appropriate wells using ECHO 555 acoustic liquid handler (Labcyte Inc.). For each reaction/assay, three blanks were prepared by mixing 10 μL of protein solution with 400 nL DMSO. The contents of the wells were carefully mixed by aspiration, and then each plate was sealed with an adhesive cover, centrifuged at 2000 g for 1 minute, and kept in the dark at room temperature until 5 min, 15 min, 30 min, or 2 h collections.
# (§2) Target pretreatment: Before each assay MALDI target (Bruker MPT 384 ground steel BC) was pre-treated by pipetting on each spot 0.75 μL of saturated sinapinic acid in acetonitrile (ACN).
# (§3) Sample preparation: At collection time point, 2 μL of reaction mixtures were pipetted out into 20 μL MALDI matrix solution (saturated solution of sinapinic acid in 1:1 ACN:water solution containing 0.75% trifluoroacetic acid (TFA)) deposited on 384 well polypropylene plate. Resulting solution was mixed by aspiration, centrifuged at 2000 g for 1 minute, then 1 μL aliquots were dispensed on pre-treated MALDI target using Beckman Coulter Biomek FXP 96/384-Span-8 Laboratory Automation Workstation. Finally, the MALDI target was dried under mild vacuum to produce spots with fine crystalline structure.
# (§4) Measurements: MALDI-TOF measurements were performed on a Bruker Daltonics rapiflex Tissuetyper TOF-TOF mass spectrometer using linear mode and mass range from 18.6 to 21.6 kDa. Detector gain was set to 3.3× (483 V), sample rate to 5 GS/s, real time smoothing to medium (175 MHz), laser smart beam pattern was set to: “MS Thin Layer M5”, and the laser frequency was 10000 Hz. Spectra were automatically collected using custom Auto Xecute method. Laser power was auto adjusted using fuzzy control. The peak selection range was set to be between 19000 and 21500 Da. Peak evaluation uses half width parameter set to be smaller than 40 Da for processed spectrograms (centroid peak detection; smoothed by SavitzkyGolay algorithm using 7 m/z width and 2 cycles; baseline was subtracted using median algorithm with flatness 1 and median level 0.01). Fuzzy control used Proteins/Oligonucleotides protocol with minimum half width 1/10 times above threshold. Up to 40000 satisfactory shots were collected in 10000 shot steps. Dynamic termination was implemented to finish data collection when peak signal/noise ratio was reaching value of 50.
# (§5) Spectra processing: Spectra were smoothed by SavitzkyGolay algorithm using 7 m/z width and three cycles. Centroid peak detection algorithm was used with signal to noise threshold set to 6, relative intensity threshold 4%, peak width 10 m/z and median baseline subtraction using flatness of 1 and median level of 0.01. Peak intensity and area under the peak were evaluated and recorded for all peaks between 19,300 Da and 21,550 Da.
# (§6) Calculation of percent modification: Percent modification was calculated as a ratio of peak height for protein modified by compound to sum of peak height of remaining protein plus peak height for protein modified by compound. If multiple modifications were observed each was calculated as a ratio of peak height for given modification versus sum of peak heights for all observed protein species. Data reported in Table 5 are from 15 minutes reaction time point.
# [2] = target: T2, GDP-loaded KRAS4b (amino acids 1-169) G12C/C118S protein (Homo sapiens, UniProt P01116, C118S/G12C); assay: Covalent cysteine 12 modification by MALDI-TOF MS, GDP-loaded KRAS G12C; format: binding; settings: 15 minutes reaction time point
# T2 construct: KRAS4b (amino acids 1-169) G12C/C118S protein; made in house
# Procedure: as §1, §2, §3, §4, §5, §6
# [3] = target: T3, Avi-KRAS G12C (1-169) GppNHp/RAF1 RBD-3×FLAG (52-151) (Homo sapiens, UniProt P01116, G12C); assay: Raf1 RBD-KRAS G12C-GppNHp disruption (protein:protein interaction HTRF assay); format: biochemical
# T3 construct: Avi-KRAS G12C (1-169) GppNHp/RAF1 RBD-3×FLAG (52-151)
# Procedure: A protein: protein (PPI) interaction Homogeneous Time Resolved Fluorescence (HTRF) assay was used to determine the effectiveness of compounds of the present disclosure in disrupting KRAS G12C protein and effector (RAF1 or PIK3CA) binding.
# The HTRF assay used the following reagents and proteins: 50 nM Avi-KRAS G12C Q25A (1-169) GppNHp/3×FLAG-PI3K CA (157-299); 50 nM Avi-KRAS G12C (1-169) GppNHp/RAF1 RBD-3×FLAG (52-151); 35 nM Avi-PI3K RBD-3×FLAG; Assay Buffer: 50 mM Tris pH 7.5, 100 mM NaCl, 5 mM MgCl2, 0.1% BSA, 0.01% Tween 20, 10% DMSO; Bead Buffer: 50 mM Tris pH 7.5, 0.01% Tween 20; Assay volume: 20 μL (384 well plate-low volume format); and Compound titration: 30-0.02 μM, 3× dilution series.
# The HTRF assay employed the following protocol:
# Compounds were dispensed in assay plate (384-well, Grenier Bione #784075) using Echo (model 555) with dose response settings: 200 nL final volume, titration from 100 μM as a 10-point dilution series. KRAS proteins were prepared in assay buffer, and dispensed on plates, 5 μL per well, then incubated for 1 h at room temperature, with 700 rpm shaking. RAF1 RBD and PI3K RBD CA were prepared in assay buffer, dispensed onto plates, 5 μL per well, and then incubated for 1 h at room temperature, with 700 rpm shaking. Reagent mix was then prepared and dispensed on plates, 10 μL per well, and then incubated for 1 h at room temperature, with 700 rpm shaking.
# Plates were analyzed on an Envision plate reader using the following setting: Excitation 320 nm, Bandwidth 75 nm; Emission 615 nm, Bandwidth 85 nm; Gain 100%; Flashes 100; Lag 60 μs. Data was reported as percentage of activity, with DMSO as 100%. Data was plotted and analyzed using Prism 8.
Compound,IC50 (pERK in NCI-H358 cells),GppNHp-KRAS G12C percent of modification [1],GDP-KRAS G12C percent of modification [2],IC50 [3],"IC50 (pERK in NCI-H358 cells; Homo sapiens, NCI-H358, 0.5 h)"
"C=CC(=O)N1CC[C@@H](Oc2nc(OC[C@@H]3C[C@@H](OC)CN3C)nc3c(F)c(-c4ccc(F)c5sc(N)nc45)c(C(F)(F)F)cc23)C1 (single isomer, unassigned) [Compound 15]",> 1000 nM,D (percent of modification <10%),D (percent of modification <10%),> 20000 nM,
"C=CC(=O)N1CC[C@H](Oc2nc(OC[C@@]34CCCN3C[C@H](F)C4)nc3c(F)c(-c4ccc(F)c5sc(N)nc45)c(C(F)(F)F)cc23)C1 (atropisomer, axis not shown) [Compound 5]",> 1000 nM,D (percent of modification <10%),D (percent of modification <10%),5000 to 20000 nM,
"C=CC(=O)N1CC[C@@H](Oc2nc(OC[C@@H]3CC4(CC4)CN3C)nc3c(F)c(-c4ccc(F)c5sc(N)nc45)c(C(F)(F)F)cc23)C1 (atropisomer, axis not shown) [Compound 25]",> 1000 nM,D (percent of modification <10%),D (percent of modification <10%),5000 to 20000 nM,
"C=CC(=O)N1CC[C@@H](Oc2nc(OC[C@@]34CCCN3C[C@H](F)C4)nc3c(F)c(-c4ccc(F)c5sc(N)nc45)c(Cl)cc23)C1 (atropisomer, axis not shown) [Compound 3]",,A (percent of modification ≥70%),A (percent of modification ≥70%),≤ 500 nM,≤ 100 nM
C=CC(=O)N1CC(Oc2nc(OC[C@@]34CCCN3C[C@H](F)C4)nc3c(F)c(-c4ccc(F)c5sc(N)nc45)c(C(F)(F)F)cc23)[C@@H](C)C1 (stereo partly shown) [Compound 34],,B (50≤percent of modification <70%),A (percent of modification ≥70%),≤ 500 nM,≤ 100 nM
"C=CC(=O)N1CC[C@H](Oc2nc(OC[C@@]34CCCN3C[C@H](F)C4)nc3c(F)c(-c4ccc(F)c5sc(N)nc45)c(C(F)(F)F)cc23)C1 (atropisomer, axis not shown) [Compound 9]",100 to 1000 nM,D (percent of modification <10%),C (10%≤modification <50%),500 to 5000 nM,
"C=CC(=O)N1CC[C@@H](Oc2nc(OC[C@@]34CCCN3C[C@H](F)C4)nc3c(F)c(-c4ccc(F)c5sc(N)nc45)c(C(F)(F)F)cc23)[C@@H]1C (atropisomer, axis not shown) [Compound 41]",100 to 1000 nM,C (10%≤modification <50%),A (percent of modification ≥70%),≤ 500 nM,
"C=CC(=O)N1CC[C@H](Oc2nc(OC[C@@]34CCCN3C[C@H](F)C4)nc3c(F)c(-c4ccc(F)c5sc(N)nc45)c(Cl)cc23)C1 (atropisomer, axis not shown) [Compound 4]",,D (percent of modification <10%),D (percent of modification <10%),> 20000 nM,> 1000 nM
"C=CC(=O)N1C[C@H](Oc2nc(OC[C@@]34CCCN3C[C@H](F)C4)nc3c(F)c(-c4ccc(F)c5sc(N)nc45)c(C(F)(F)F)cc23)[C@@H](F)C1 [Compound 28, 1-((3S,4S)-3-((7-(2-amino-7-fluorobenzo[d]thiazol-4-yl)-8-fluoro-2-(((2R,7aS)-2-fluorotetrahydro-1H-pyrrolizin-7a (5H)-yl)methoxy)-6-(trifluoromethyl)quinazolin-4-yl)oxy)-4-fluoropyrrolidin-1-yl) prop-2-en-1-one]",,A (percent of modification ≥70%),A (percent of modification ≥70%),≤ 500 nM,≤ 100 nM
"C=CC(=O)N1CC[C@H](Oc2nc(OC[C@@]34CCCN3C[C@H](F)C4)nc3c(F)c(-c4ccc(F)c5sc(N)nc45)c(Cl)cc23)C1 (atropisomer, axis not shown) [Compound 8]",> 1000 nM,D (percent of modification <10%),C (10%≤modification <50%),500 to 5000 nM,

# Source: US20250188085A1, “COMPOSITIONS AND METHODS FOR INHIBITION OF RAS” (THERAS, INC., priority 2022, published 2025)
